In ChEMBL document CHEMBL1649434, “Regulation of mprF in daptomycin-nonsusceptible Staphylococcus aureus strains” (2009):
≈ marks a conversion by molar mass, not a printed value.

What was measured:
[1] = test system: Staphylococcus aureus; assay: Antimicrobial activity against Staphylococcus aureus isolate 629 by Etest; assay type: functional
[2] = test system: Staphylococcus aureus; assay: Antimicrobial activity against Staphylococcus aureus isolate 701 harboring mprF C884A mutant gene by Etest; assay type: functional
[3] = test system: Staphylococcus aureus; assay: microbe, parasite or virus in culture; settings: isolate 616
Description: Antimicrobial activity against Staphylococcus aureus isolate 616 by Etest

[4] = test system: Staphylococcus aureus; assay: Antimicrobial activity against Staphylococcus aureus isolate 703 harboring mprF C884A mutant gene by Etest; assay type: functional

**Q.** How did the MIC [1] turn out when `CCCCCCCCCC(=O)N[C@@H](Cc1c[nH]c2ccccc12)C(=O)N[C@H](CC(N)=O)C(=O)N[C@@H](CC(=O)O)C(=O)N[C@@H]1C(=O)NCC(=O)N[C@@H](CCCN)C(=O)N[C@@H](CC(=O)O)C(=O)N[C@H](C)C(=O)N[C@@H](CC(=O)O)C(=O)NCC(=O)N[C@H](CO)C(=O)N[C@@H]([C@H](C)CC(=O)O)C(=O)N[C@@H](CC(=O)c2ccccc2N)C(=O)O[C@@H]1C` was run?
**A.** Its MIC is 0.75 µg/mL (≈ 0.463 µM).

**Q.** What about the MIC [2] of the same compound?
**A.** Its MIC is 2 µg/mL (≈ 1.23 µM).

**Q.** What about the MIC [3] of the same compound?
**A.** The MIC was 0.5 µg/mL (≈ 0.309 µM).

**Q.** And the MIC [4]?
**A.** The MIC was 2 µg/mL (≈ 1.23 µM).
